Experimental data: patent US20110144018A1, “AGENT FOR PROPHYLAXIS OF REFLEX SYMPATHETIC DYSTROPHY AFTER CEREBRAL APOPLEXY” (priority 2006, published 2011)

Assays:
[1] = system: patients with hemiplegia attributed to cerebrovascular disease (stroke), post-stroke RSD (shoulder-hand syndrome); assay: Test of prevention of onset of post-stroke RSD; format: in vivo, human
Description: Test subjects were 33 patients with hemiplegia attributed to cerebrovascular disease (stroke) at Brunnstrom stage III or lower in either the upper limb or a finger on admission. Patients already developing RSD (shoulder-hand syndrome) on admission and patients with pain in the shoulder joint or swollen paralyzed limbs were excluded from the test. […] On the other hand, 21 test subjects were classified into a rehabilitation alone group (control group) and compared with the EL administration group. Physical therapy and therapeutic exercise, occupational therapy, and the management of the paralyzed limbs were performed thoroughly in all the cases. […] EL administration was initiated 11 to 59 days after an attack of stroke (25.8 days on average) and continued until 5 months after the attack of stroke. The same observation period was applied to the control group. The test subjects were diagnosed as developing RSD (shoulder-hand syndrome) if they had diffuse pain not localized to the shoulder joint, edema involving skin color changes, skin temperature abnormalities, and range of motion limitations, and the practice of their rehabilitation was restricted. These criteria agreed to Veldman's diagnostic criteria or diagnostic criteria, for CRPS-type 1 provided by the International Association for the Study of Pain.
Activities of daily living (ADL) were evaluated on the basis of the Barthel Index (BI) and the range of motion (ROM) of shoulder joint. The movable range of shoulder joint (also referred to as “shoulder ROM”) was regarded as restricted (Shoulder-ROM-restrictions were present.) if either abduction or flexion was restricted in measurement. The test subjects were also examined for sensory impairment, aphasia, and unilateral spatial neglect on admission.
Statistical analysis was conducted with unpaired t-test, Fisher's exact test, or Wilcoxon test, and 5% or lower significance level was regarded as being significant.

[2] = system: patients with hemiplegia attributed to cerebrovascular disease (stroke) who developed RSD (shoulder-hand syndrome); assay: Test of treatment of post-stroke RSD; format: in vivo, human; conditions: therapeutic administration group
Method: EL was administered after the onset of RSD (shoulder-hand syndrome) in the same use and dose as in Example 1 to 11 patients with hemiplegia attributed to cerebrovascular disease (stroke) at Brunnstrom stage III or lower in either the upper limb or a finger on admission, who developed RSD (shoulder-hand syndrome). These patients were classified into a therapeutic administration group. On the other hand, the EL administration group of Example 1 was compared as a control (preventive administration group) with the therapeutic administration group.

[3] = system: RSD triggered and developed by a trauma or surgical invasion; conditions: clinical; cited from earlier work
[4] = EL preventive administration group, 12 cases, 20 units i.m. once a week until 5 months after attack

Compound	Incidence of RSD converted to all patients with hemiplegia attributed to stroke in the facility ([1]; EL administration group)	Incidence of RSD ([1]; EL administration initiated within 48 days after stroke)	Incidence of RSD (cases developing RSD) ([1]; EL preventive administration group, 1 of 12 cases)	Number of test subjects developing post-stroke RSD (Developed) [1, 4]	Number of test subjects not developing post-stroke RSD (Not developed) [1, 4]	No RSD, the number of persons ([1]; preventive administration group, at completion of administration)	Incidence of RSD until discharge from hospital versus unadministered patient group ([1]; repetitive administration to stroke hemiplegia patients without RSD on admission)	Barthel index at completion of EL administration compared with preventive administration group [2]	Diffuse pain, shoulder joint pain and progression of range of motion restrictions [2]	Suppression of the symptoms of RSD [2]	Effect on initial onset of RSD [3]
1-butyric acid-7-(L-2-aminobutyric acid)-26-L-aspartic acid-27-L-valine-29-L-alanine-calcitonin [EL]	approximately 1.3%	0%	8.3%	1	11	11	suppressed significantly and remarkably	significantly low	slightly suppressed	could not be suppressed completely in any case	
O=C1O[C@H]([C@@H](O)CO)C(O)=C1O [vitamin C]											preventive effect
